Source: patent US20070173499A1 (priority 2004, published 2007)
Like-named read-outs stand apart in the source and are kept apart here.

Columns and labels:
[1] = molecular target: T1, 5-HT2C receptor (Homo sapiens, UniProt P28335); experiment: radioligand binding assay for 5-HT2C receptor ([3H]-mesulergine)
T1 construct: expressed in transfected cells; host or cells: CHO-K1 (or COS-7); alternatively choroid plexus tissue
T1 sequence (P28335 33-458): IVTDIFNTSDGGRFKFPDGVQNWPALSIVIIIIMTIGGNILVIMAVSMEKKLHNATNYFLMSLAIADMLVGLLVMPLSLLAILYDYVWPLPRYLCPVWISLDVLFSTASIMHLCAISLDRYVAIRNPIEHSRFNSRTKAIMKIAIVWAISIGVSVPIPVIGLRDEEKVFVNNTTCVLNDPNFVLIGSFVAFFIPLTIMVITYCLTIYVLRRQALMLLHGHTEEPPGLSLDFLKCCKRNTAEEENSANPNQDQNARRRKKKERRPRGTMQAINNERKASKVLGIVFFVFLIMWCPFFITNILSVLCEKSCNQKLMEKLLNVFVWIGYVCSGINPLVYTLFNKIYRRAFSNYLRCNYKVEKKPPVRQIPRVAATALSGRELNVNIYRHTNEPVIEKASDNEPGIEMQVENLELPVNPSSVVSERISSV
Experimental: (§1) The effect of the compounds of the present invention on the neurochemical steady state was determined by in vitro investigations such as a radionuclide-marked radioligand binding assay for 5-HT2A (Bonhaus D. W. Br. J. Pharmacol. 1995, 115:622; Saucier C. J. Neurochem. 1997, 68:1998) and 5-HT2C receptors (Wolf W. A. J. Neurochem. 1997, 69:1449), in vitro binding assay for σ1 receptor (Thomson W. and Donn R. Arthritis Res. 2002, 4: 302-306) and by in vivo investigations in a tail suspension test (Vogel H. G. and Vogel W. H. Drug Discovery and Evaluation Pharmacological Assays, Springer 1997, 304), in amphethamine-induced hyperlocomotion in mice (Millan M. J. et al, 1998 J Pharmacol. Exp. Ther. 287: 167-186), in a forced swim test in mice (Porsolt R. D. et al. Arch. Int. Pharmacodyn. 1977, 229:327-336), in meta-chlorophenyl piperazine (m-CPP) test on rats (Drug Dev. Res. 1989, 18:119-144), and in apomorphine, tryptamine and norepinephrine (ATN) test in rats (Arch. Int. Pharmacodyn. 1977, 227:238-253).
(§2) A small concentration of a radioligand having a great affinity for binding to a receptor was incubated with a tissue sample enriched with a certain receptor (1-5 mg of tissue) in a buffered medium (0.2-5 mL). Recombinant human HT2A and HT2C receptors were expressed in CHO-K1 or COS-7 cells and were also used for competitive binding. During incubation the radioligand bound to the receptor. When a binding balance was achieved, the receptors to which the radioligand was bound were separated from those to which said ligand was not bound, and the radioactivity of the receptor/radioligand complex was measured. The interaction of the tested compounds with receptors was tested in competitive binding experiments. Various concentrations of tested compounds were added to the incubation mixture containing a prepared tissue enriched with corresponding receptors and the radioligand. The radioligand binding was inhibited by the test compounds proportionally to the affinity of a certain compound for the receptor and to the concentration of the compound.
(§3) The radioligand used for the determination of binding to 5-HT2A receptor was [^3H]-ketanserin and the tissue used was human cortex or recombinant 5-HT2A receptor expressed in CHO-K1 cells. The radioligand used for the determination of binding to 5-HT2C receptor was [^3H]-mesulergine and the tissue used was choroid plexus or recombinant 5-HT2C receptor expressed in CHO-K1 cells.

[2] = molecular target: T2, 5-HT2A receptor (Homo sapiens, UniProt P28223); experiment: radioligand binding assay for 5-HT2A receptor ([3H]-ketanserin)
T2 construct: expressed in transfected cells; host or cells: CHO-K1 (or COS-7); alternatively human cortex tissue
Experimental: as §1, §2, §3

[3] = molecular target: T3, σ1 receptor (Homo sapiens, UniProt Q99720); experiment: in vitro binding assay for σ1 receptor, Jurkat cell membranes, [3H]haloperidol; settings: [3H]haloperidol 10 nM
T3 construct: endogenous in cells; host or cells: Jurkat cells (membrane fraction)
Experimental: as §1, with “227:238-253). […]” for “227:238-253).”
Binding of different radiolabeled ligans to Jurkat cell membranes was measured as described previously (Ramamoorthy et al., 1995). […]
Membranes were incubated with ligands in phosphate buffer for 3 hours at room temperature. After filter had been washed, radioactivity associated with the filter was determined by liquid scintillation spectrometry.

T2 sequence (P28223 whole entry): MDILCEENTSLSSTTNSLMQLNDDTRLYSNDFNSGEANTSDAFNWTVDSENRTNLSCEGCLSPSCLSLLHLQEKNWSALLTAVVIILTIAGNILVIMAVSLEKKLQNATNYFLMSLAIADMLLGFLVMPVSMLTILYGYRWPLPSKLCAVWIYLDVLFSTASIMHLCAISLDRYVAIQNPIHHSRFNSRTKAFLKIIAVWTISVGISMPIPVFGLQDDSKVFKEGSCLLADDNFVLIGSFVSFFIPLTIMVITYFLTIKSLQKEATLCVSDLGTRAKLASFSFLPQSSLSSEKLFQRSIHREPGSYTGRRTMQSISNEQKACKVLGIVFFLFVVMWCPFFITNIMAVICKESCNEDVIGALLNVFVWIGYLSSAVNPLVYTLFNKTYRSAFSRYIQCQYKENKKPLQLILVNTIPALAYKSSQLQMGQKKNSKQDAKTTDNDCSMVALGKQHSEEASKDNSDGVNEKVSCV
T3 sequence (Q99720 whole entry): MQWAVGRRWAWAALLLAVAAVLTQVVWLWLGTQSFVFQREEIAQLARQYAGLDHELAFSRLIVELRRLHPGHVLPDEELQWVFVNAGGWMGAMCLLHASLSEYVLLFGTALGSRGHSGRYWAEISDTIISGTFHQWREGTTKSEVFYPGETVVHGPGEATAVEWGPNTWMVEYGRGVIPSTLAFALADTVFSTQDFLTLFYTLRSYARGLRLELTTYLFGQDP

CN(C)CCCOCc1cc2c(s1)-c1cc3ccccc3cc1Sc1ccccc1-2
IC50 [1]: < 200 nM
Ki [1]: < 100 nM
IC50 [2]: < 200 nM
Ki [2]: < 100 nM

CC(CN(C)C)OCc1cc2c(s1)-c1cc3c(cc1Oc1ccccc1-2)CCCC3 (stereo not shown) [dimethyl-[2-(10,11,12,13-tetrahydro-8-oxa-1-thia-benzo[e]naphtho[3,2-h]azulen-2-ylmethoxy)-propyl]-amine]
IC50 ([3]; read-out: binding affinity to σ1 receptor expressed as IC50): < 200 nM
Ki ([3]; read-out: binding affinity to σ1 receptor, Ki): < 100 nM

CN(C)CCCOCc1cc2c(s1)-c1ccc3ccccc3c1Sc1ccccc1-2 [dimethyl-[3-(3,10-dithia-benzo[e]naphtho[1,2-h]azulen-2-ylmethoxy)-propyl]-amine]
IC50 ([1]; [3H]-mesulergine, choroid plexus or recombinant 5-HT2C receptor in CHO-K1 cells, read-out: binding affinity to 5-HT2C serotonin receptor expressed as IC50): < 200 nM
Ki ([1]; [3H]-mesulergine, choroid plexus or recombinant 5-HT2C receptor in CHO-K1 cells, read-out: binding affinity to 5-HT2C serotonin receptor, Ki): < 100 nM
IC50 ([2]; [3H]-ketanserin, human cortex or recombinant 5-HT2A receptor in CHO-K1 cells, read-out: binding affinity to 5-HT2A serotonin receptor expressed as IC50): < 200 nM
Ki ([2]; [3H]-ketanserin, human cortex or recombinant 5-HT2A receptor in CHO-K1 cells, read-out: binding affinity to 5-HT2A serotonin receptor, Ki): < 100 nM
